From US10654788B2, “Method for synthesizing novel compounds derived from 3-hydroxy-cyclopentyl acetic acid” (L'OREAL, priority 2015, dated 2020)

Experiments:
TGM3 transcripts = assay: Expression of TGM3 transcripts in keratinocytes (RT-qPCR); format: cell-based; conditions: human epidermal keratinocytes
Protocol: (§1) The influence of compound 5, in particular obtained according to the preparation process described in example 1 above, on the epidermal renewal and the barrier effect of the skin was evaluated in vitro by measuring the expression of the TGM1 and TGM3 transcripts in keratinocytes.
(§2) Human epidermal keratinocytes were incubated for 24 hours in the presence or absence (control) of the compound to be tested. At the end of the incubation, the total RNAs were extracted and then quantified. The expression of the TGM1 and TGM3 transcripts was then measured by means of a 2-step RT-qPCR method by means of a LightCycler® 480 system and according to the SYBR® Green (Qiagen) incorporation technique. The expression of these transcripts was standardized relative to the expression of 2 housekeeping genes, RPL13A and GAPDH. The experiment was reproduced 3 times (N=3).
(§3) The results are expressed as fold change (fc) relative to the control.

TGM1 transcripts = assay: Expression of TGM1 transcripts in keratinocytes (RT-qPCR); format: cell-based; conditions: human epidermal keratinocytes
Protocol: as §1, §2, §3

[1] = 24 hours incubation, 100 μm, standardized to RPL13A and GAPDH, N=3

Structure (SMILES): CCCCCCCCC1C(O)CCC1CC(=O)O (stereo not shown) [Compound 5]
- expression of the TGM3 transcripts (class in words) (TGM3 transcripts; 24 hours): moderately stimulated
- TGM3 transcript expression, fold change (fc) relative to the control (TGM3 transcripts; [1]): 1.8 fc
- expression of the TGM1 transcripts (class in words) (TGM1 transcripts; 24 hours): moderately stimulated
- TGM1 transcript expression, fold change (fc) relative to the control (TGM1 transcripts; [1]): 1.9 fc
